What is called IC50 is the concentration that gives 50% inhibition. A low value points to inhibition by little substance.

The target of the test is FAS (Homo sapiens, UniProt P49327). The test can be described thus: FAS assay (Assay #1: residual NADPH detection, or Assay #2: CoA detection with thio-reactive coumarin dye). The format is biochemical. To be noted: average IC50, each compound tested two or more times; FAS activity measured through one of the two assays. The protocol: FAS Activity was Measured Through One of the Two Following Assays.
Sequence of FAS (P49327 whole entry): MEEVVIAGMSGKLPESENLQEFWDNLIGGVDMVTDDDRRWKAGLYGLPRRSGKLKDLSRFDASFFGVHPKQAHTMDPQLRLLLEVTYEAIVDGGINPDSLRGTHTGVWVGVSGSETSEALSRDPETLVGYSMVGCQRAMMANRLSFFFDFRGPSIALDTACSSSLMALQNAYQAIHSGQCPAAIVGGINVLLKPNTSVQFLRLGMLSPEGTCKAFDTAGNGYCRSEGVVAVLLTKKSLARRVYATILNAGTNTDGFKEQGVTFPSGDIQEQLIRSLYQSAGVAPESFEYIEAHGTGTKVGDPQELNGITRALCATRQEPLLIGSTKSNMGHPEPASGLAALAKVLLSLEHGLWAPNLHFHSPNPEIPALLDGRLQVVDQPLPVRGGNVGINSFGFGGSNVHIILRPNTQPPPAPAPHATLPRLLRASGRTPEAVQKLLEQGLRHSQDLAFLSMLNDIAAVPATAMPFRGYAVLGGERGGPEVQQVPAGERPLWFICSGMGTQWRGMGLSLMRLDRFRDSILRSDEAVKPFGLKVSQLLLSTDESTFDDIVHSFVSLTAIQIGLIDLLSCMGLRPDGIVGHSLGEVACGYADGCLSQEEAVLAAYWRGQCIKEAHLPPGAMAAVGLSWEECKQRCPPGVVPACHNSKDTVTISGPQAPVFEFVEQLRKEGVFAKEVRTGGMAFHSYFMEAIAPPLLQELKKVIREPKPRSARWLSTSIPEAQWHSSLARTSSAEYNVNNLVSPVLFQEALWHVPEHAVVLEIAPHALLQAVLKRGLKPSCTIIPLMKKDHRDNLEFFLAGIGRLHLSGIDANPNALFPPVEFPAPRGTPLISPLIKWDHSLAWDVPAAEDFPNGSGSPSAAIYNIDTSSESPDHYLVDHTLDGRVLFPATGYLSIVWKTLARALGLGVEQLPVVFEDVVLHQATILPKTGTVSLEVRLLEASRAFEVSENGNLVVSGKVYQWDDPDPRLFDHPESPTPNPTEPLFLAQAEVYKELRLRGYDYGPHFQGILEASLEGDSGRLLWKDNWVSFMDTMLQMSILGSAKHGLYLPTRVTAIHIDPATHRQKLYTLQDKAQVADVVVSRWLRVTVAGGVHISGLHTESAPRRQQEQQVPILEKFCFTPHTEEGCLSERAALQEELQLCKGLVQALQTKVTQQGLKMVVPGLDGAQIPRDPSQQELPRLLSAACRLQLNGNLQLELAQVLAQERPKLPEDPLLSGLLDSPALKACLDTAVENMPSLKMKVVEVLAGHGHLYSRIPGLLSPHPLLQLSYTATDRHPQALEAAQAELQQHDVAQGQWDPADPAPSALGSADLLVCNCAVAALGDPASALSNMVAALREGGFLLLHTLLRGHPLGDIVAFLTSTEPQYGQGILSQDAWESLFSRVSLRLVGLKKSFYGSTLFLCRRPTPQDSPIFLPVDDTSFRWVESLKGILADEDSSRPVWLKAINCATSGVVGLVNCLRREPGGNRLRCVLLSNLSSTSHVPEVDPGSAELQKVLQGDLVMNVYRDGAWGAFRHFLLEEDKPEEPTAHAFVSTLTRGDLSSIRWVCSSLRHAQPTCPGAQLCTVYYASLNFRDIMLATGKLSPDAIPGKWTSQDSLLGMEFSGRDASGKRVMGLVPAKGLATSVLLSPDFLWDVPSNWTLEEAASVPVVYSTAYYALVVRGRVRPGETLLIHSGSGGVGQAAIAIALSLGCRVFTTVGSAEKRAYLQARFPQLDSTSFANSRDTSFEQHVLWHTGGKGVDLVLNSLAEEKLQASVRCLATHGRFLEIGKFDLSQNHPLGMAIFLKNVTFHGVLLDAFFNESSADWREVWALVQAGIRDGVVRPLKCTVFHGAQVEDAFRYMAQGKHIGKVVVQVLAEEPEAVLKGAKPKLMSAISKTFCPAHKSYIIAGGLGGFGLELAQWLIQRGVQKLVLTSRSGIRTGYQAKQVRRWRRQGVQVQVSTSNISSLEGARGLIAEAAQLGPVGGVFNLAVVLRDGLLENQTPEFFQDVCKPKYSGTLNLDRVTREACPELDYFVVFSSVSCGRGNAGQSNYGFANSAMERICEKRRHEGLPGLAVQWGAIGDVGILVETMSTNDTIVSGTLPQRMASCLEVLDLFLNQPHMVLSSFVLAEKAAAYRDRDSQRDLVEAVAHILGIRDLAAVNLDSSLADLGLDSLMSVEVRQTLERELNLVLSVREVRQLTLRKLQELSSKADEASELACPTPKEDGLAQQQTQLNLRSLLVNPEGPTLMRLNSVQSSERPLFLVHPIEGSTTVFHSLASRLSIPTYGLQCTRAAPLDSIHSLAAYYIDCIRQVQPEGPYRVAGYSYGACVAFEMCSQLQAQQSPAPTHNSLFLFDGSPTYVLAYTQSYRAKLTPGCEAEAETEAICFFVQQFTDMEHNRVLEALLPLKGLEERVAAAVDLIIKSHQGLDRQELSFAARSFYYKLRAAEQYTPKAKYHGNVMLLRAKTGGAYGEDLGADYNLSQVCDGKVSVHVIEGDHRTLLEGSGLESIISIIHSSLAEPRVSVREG
Inhibition of FAS activity can be measured based on the detection of residual NADPH substrate after the FAS assay is quenched. This assay is run as a 10 μL endpoint assay in 384-well format, where the reaction contains 20 μM malonyl-CoA, 2 μM acetyl-CoA, 30 μM NADPH and 40 nM FAS in 50 mM sodium phosphate, pH 7.0. The assay is run by sequentially dispensing 5 ul of a malonyl-CoA solution, then enzyme solution (containing the acetyl-CoA, and NADPH) into a black, low volume assay plate (Greiner 784076) pre-dispensed with […] compound solutions in DMSO. The reaction is incubated at ambient temperature for 60 minutes, then quenched with 5 μL of a developing solution composed of 90 μM resazurin, 0.3 IU/ml diaphorase in 50 mM sodium phosphate, pH 7.0. The developed reaction is read on a Molecular Devices Analyst or Acquest (or equivalent) plate reader using a 530 nm excitation wavelength filter, a 580 nm emission filter, and 561 nm dichroic filter. The test compounds are prepared in neat DMSO at a concentration of 10 mM. For inhibition curves, compounds are diluted using a three fold serial dilution and tested at 11 concentrations (e.g. 25 μM-0.42 nM). Curves are analysed using ActivityBase and XLfit, and results are expressed as pIC50 values.
Inhibition of FAS can also be quantified based on the detection of the CoA products with a thio-reactive coumarin dye. This assay is run as a 10 μL endpoint assay in 384-well format, where the reaction contains 20 μM malonyl-CoA, 20 μM acetyl-CoA, 40 μM NADPH and 2 nM FAS in 50 mM sodium phosphate, pH 7.0, and 0.04% Tween-20. The assay is run by adding 5 μL enzyme solution to a black, low volume assay plate (Greiner 784076) pre-dispensed with 100 nl compound solutions in DMSO. After 30 minutes, 5 μL substrate is added, and the reaction incubated at ambient temperature for an additional 60 minutes. The reaction is then quenched with 10 μL of 6M guanidine-HCl containing 50 μM CPM (7-diethylamino-3-(4′-maleimidylphenyl)-4-methylcoumarin (CPM; thio-reactive dye), and incubated for 30 minutes. The plate is read on an Envision (PerkinElmer) or equivalent plate reader using a 380 nm excitation wavelength filter, and a 486 nm emission filter. Data fitting and compound preparations are done as described above.
`Cc1cc(=O)n(-c2ccc(-c3ccc4cc[nH]c4c3)cc2)c(C[C@@H]2CCN(C(=O)C3CC3)C2)n1` [Example 47, 2-{[(3S)-1-(cyclopropylcarbonyl)-3-pyrrolidinyl]methyl}-1-[4-(1H-indol-6-yl)phenyl]-6-methyl-4(3H)-pyrimidinone] gave an IC50 of 10 nM.
With `Cc1nc2c(=O)n(C[C@@H]3CCN(C(=O)C4CC4)C3)c(-c3ccc(-c4ccc5[nH]ncc5c4)cc3)nc2o1` [Example 11, 6-{[(3R)-1-(cyclopropylcarbonyl)-3-pyrrolidinyl]methyl}-5-[4-(1H-indazol-5-yl)phenyl]-2-methyl[1,3]oxazolo[5,4-d]pyrimidin-7(6H)-one] the figure was 25.1 nM; with `Cc1cc(=O)n(C[C@@H]2CCN(C(=O)C3CC3)C2)c(-c2ccc(-c3ccc4[nH]ccc4c3)cc2)n1` [Example 26], 3.16 nM; with `COc1ccc(-c2ccc(-c3nc4ccccc4c(=O)n3C[C@@H]3CCN(C(=O)C4CC4)C3)cc2)c(Cl)c1` [Example 24, 2-[2-chloro-4(methoxy)-4-bipheny]-3-{[(3R)-1-(cyclopropylcarbonyl)-3-pyrrolidinyl]methyl}-4(3H)-quinazolinone], 200 nM.
As for `Cn1ncc2c(=O)n(C[C@@H]3CCN(C(=O)C4CC4)C3)c(-c3ccc(-c4ccc5[nH]ccc5c4)cc3)nc21` [Example 1, 5-{[(3R)-1-(cyclopropylcarbonyl)-3-pyrrolidinyl]methyl}-6-[4-(1H-indol-5-yl)phenyl]-1-methyl-1,5-dihydro-4H-pyrazolo[3,4-d]pyrimidin-4-one], the midpoint of inhibition, the IC50, lay at 7.9 nM.
On to `Cc1cc(=O)nc(C[C@@H]2CCN(C(=O)C3CC3)C2)n1-c1ccc(-c2ccc3occc3c2)cc1` [Example 49, 1-[4-(1-benzofuran-5-yl)phenyl]-2-{[(3S)-1-(cyclopropylcarbonyl)-3-pyrrolidinyl]methyl}-6-methyl-4(1H)-pyrimidinone], for which 3160 nM corresponded to half-maximal inhibition (IC50).

Values taken from US20130303551A1, “PYRIMIDINONE DERIVATIVES AS FATTY ACID SYNTHASE INHIBITORS” (priority 2011, published 2013).
